Test results: patent US11427556B2, “Urea derivatives as inhibitors of ASK1” (Hepagene Therapeutics (HK) Limited, priority 2017, dated 2022)

biological target: T1, Recombinant human ASK1 kinase (Homo sapiens, UniProt Q99683); test: ASK1 kinase HTRF assay (HTRF KinEASE-STK, phosphorylation of biotinylated peptide substrate); assay type: biochemical; details: not given
T1 construct: purchased Invitrogen Inc
T1 sequence (Q99683 1-1374): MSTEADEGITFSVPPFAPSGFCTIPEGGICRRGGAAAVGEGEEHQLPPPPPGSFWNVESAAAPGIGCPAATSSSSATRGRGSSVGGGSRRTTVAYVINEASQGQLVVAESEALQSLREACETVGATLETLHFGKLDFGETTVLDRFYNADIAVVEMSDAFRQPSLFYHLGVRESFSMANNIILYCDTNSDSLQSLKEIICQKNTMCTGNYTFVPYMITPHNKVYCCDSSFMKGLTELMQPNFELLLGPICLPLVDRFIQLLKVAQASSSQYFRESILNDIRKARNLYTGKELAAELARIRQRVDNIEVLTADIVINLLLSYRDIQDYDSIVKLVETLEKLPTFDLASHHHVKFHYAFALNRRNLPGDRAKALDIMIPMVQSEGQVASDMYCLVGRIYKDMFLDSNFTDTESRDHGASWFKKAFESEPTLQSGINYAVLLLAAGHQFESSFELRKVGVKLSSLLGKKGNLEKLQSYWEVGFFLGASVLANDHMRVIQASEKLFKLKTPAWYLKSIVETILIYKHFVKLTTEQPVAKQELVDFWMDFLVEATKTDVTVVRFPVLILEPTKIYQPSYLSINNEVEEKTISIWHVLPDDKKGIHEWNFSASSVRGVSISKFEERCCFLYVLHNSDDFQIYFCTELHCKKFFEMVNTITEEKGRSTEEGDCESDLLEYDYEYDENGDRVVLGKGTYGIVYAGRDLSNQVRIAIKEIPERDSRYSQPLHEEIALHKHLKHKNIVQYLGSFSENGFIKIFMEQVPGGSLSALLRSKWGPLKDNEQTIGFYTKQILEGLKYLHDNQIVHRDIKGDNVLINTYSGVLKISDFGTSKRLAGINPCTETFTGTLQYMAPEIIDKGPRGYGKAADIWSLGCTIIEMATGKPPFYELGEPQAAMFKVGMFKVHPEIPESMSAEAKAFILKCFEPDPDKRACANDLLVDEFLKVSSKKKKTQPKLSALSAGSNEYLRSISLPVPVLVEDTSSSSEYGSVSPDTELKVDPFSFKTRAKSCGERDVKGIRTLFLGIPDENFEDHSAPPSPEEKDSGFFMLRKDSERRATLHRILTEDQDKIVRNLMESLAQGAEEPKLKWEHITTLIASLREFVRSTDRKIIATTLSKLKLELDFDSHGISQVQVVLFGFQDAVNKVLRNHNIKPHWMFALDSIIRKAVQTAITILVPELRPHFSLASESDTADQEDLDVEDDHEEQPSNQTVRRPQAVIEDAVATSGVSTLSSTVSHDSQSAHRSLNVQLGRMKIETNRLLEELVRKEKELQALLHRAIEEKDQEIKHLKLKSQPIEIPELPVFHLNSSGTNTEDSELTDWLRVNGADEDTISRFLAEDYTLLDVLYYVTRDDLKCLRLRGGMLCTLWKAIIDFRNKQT
Protocol: Reagents: Recombinant human ASK1 kinase was from Invitrogen Inc. HTRF KinEASETM-STK S3 kit was obtained from Cisbio (Bedford, Mass.). All other reagents were of the highest grade commercially available.
Assay: The assay measures the phosphorylation level of a biotinylatd peptide substrate by the ASK1 kinase using HTRF detection. ASK1 kinase assay is based on HTRF KinEASETM-STK manual from Cisbio. Test compound, 1 uM STK-substrate-biotin, 3 nM of ASK1 kinase are incubated with 1*Kinase buffer with 5 mM MgCl2 and 1 mM DTT.

Row | SMILES | EC50 [nM]
1 | CC(C)n1cnnc1-c1cccc(NC(=O)Nc2cccnc2)n1 [Compound I-032] | 50 to 500
2 | CC(C)n1cnnc1-c1cccc(NC(=O)Nc2ccncc2)n1 [Compound I-033] | 50 to 500
3 | C[C@H](CO)n1cnnc1-c1cccc(NC(=O)Nc2cc(C(=O)N3CCCCC3)ccn2)n1 [Compound I-110] | < 50
4 | CC(C)n1cnnc1-c1cccc(NC(=O)Nc2cc3ccccc3cn2)n1 [Compound I-057] | < 50

same assay, conditions: 3 nM ASK1 kinase, 1 uM STK-substrate-biotin, HTRF detection; read-out: EC50

Row | SMILES | EC50 [nM]
5 | CC(C)n1cnnc1-c1cccc(NC(=O)Nc2cccc(C(F)(F)F)n2)n1 [Compound I-196] | < 50
6 | CC(C)n1cnnc1-c1cccc(NC(=O)Nc2cc(S(C)(=O)=O)ccn2)n1 [Compound I-204] | < 50
7 | COCC(C)n1cnnc1-c1cccc(NC(=O)Nc2ccccn2)n1 (stereo not shown) [Compound I-031] | 50 to 500
8 | CC(C)n1cnnc1-c1cccc(NC(=O)Nc2cc(C(=O)Nc3ccccc3)ccn2)n1 [Compound I-152] | < 50
9 | CCC(C)n1cnnc1-c1cccc(NC(=O)Nc2ccccn2)n1 (stereo not shown) [Compound I-028] | < 50
10 | CC(C)n1cnnc1-c1cccc(NC(=O)Nc2ccc(N3CCOCC3)cn2)n1 [Compound I-093] | < 50
11 | CC(C)n1cnnc1-c1cccc(NC(=O)Nc2ccc(OCc3ccccc3)cn2)n1 [Compound I-071] | < 50
12 | CC(C)[C@H](N)C(=O)OC[C@@H](C)n1cnnc1-c1cccc(NC(=O)Nc2cc3ccccc3cn2)n1 [Compound I-062] | < 50
13 | C[C@@H](CO)n1cnnc1-c1cccc(NC(=O)Nc2cc3ccccc3cn2)n1 [Compound I-059] | < 50
14 | CC(C)n1cnnc1-c1cccc(NC(=O)Nc2cc(-c3ccccn3)ccn2)n1 [Compound I-084] | < 50
15 | CC(C)n1cnnc1-c1cccc(NC(=O)Nc2ncccc2O)n1 [Compound I-072] | < 50
16 | CC(C)n1cnnc1-c1cccc(NC(=O)Nc2ccc(-c3ccncc3)cn2)n1 [Compound I-090] | < 50
17 | C[C@H](CO)n1cnnc1-c1cccc(NC(=O)Nc2cc(C(=O)Nc3ccc(F)cc3)ccn2)n1 [Compound I-159] | < 50
18 | CC(C)n1cnnc1-c1cccc(NC(=O)Nc2cc(-n3cnc(C4CC4)c3)ccn2)n1 [Compound I-170] | < 50
19 | CC(C)n1cnnc1-c1cccc(NC(=O)Nc2ncccc2C(F)(F)F)n1 [Compound I-193] | < 50
20 | CC(C)n1cnnc1-c1cccc(NC(=O)Nc2cc(N3CCCC3)ccn2)n1 [Compound I-167] | < 50
21 | C[C@H](CO)n1cnnc1-c1cccc(NC(=O)Nc2cc(C(=O)N3CCC(N4CCOCC4)CC3)ccn2)n1 [Compound I-131] | < 50
22 | CC(CN)n1cnnc1-c1cccc(NC(=O)Nc2ccccn2)n1 (stereo not shown) [Compound I-030] | 50 to 500
23 | CC(C)n1cnnc1-c1cccc(NC(=O)Nc2cc(N3CCN(C4CC4)CC3)ccn2)n1 [Compound I-100] | < 50
24 | CC(C)(C)n1cnnc1-c1cccc(NC(=O)Nc2cc(C(=O)N3CCCCC3)ccn2)n1 [Compound I-008, 3-[6-(4-tert-Butyl-4H-1,2,4-triazol-3-yl)pyridin-2-yl]-1-[4-(piperidine-1-carbonyl)pyridin-2-yl]urea] | < 50
25 | CNc1ccc(NC(=O)Nc2cccc(-c3nncn3C(C)C)n2)nc1 [Compound I-189] | < 50
26 | CC(C)n1cnnc1-c1cccc(NC(=O)Nc2cc(NS(=O)(=O)c3ccccc3)ccn2)n1 [Compound I-015, 3-(4-Benzenesulfonamidopyridin-2-yl)-1-[6-[4-(propan-2-yl)-4H-1,2,4-triazol-3-yl]pyridin-2-yl]urea] | < 50
27 | Cc1cnc(NC(=O)Nc2cccc(-c3nncn3C(C)C)n2)cc1C [Compound I-043] | < 50
28 | C[C@H](CO)n1cnnc1-c1cccc(N2CCN(c3ccc(C(=O)N4CCCCC4)cn3)C2=O)n1 [Compound V-23] | < 50
29 | C[C@H](CO)n1cnnc1-c1cccc(NC(=O)Nc2cc(N3CCNCC3)ccn2)n1 [Compound I-096] | < 50
30 | CC(C)n1cnnc1-c1cccc(NC(=O)Nc2cc(C(=O)Nc3ccccn3)ccn2)n1 [Compound I-161] | < 50

Row | SMILES | EC50 [nM]
31 | CC(C)n1cnnc1-c1cccc(NC(=O)Nc2ncccc2-c2ccncc2)n1 [Compound I-083] | 50 to 500
32 | C[C@H](CO)n1cnnc1-c1cccc(NC(=O)Nc2cc(-c3ccc(C4CC4)nc3)ccn2)n1 [Compound I-002, 3-[4-(6-Cyclopropylpyridin-3-yl)pyridin-2-yl]-1-(6-{4-[(2R)-1-hydroxypropan-2-yl]-4H-1,2,4-triazol-3-yl}pyridin-2-yl)urea] | < 50
33 | CC(C)n1cnnc1-c1cccc(NC(=O)Nc2cc(C(=O)N3CCCC[C@@H]3C)ccn2)n1 [Compound I-118] | < 50
34 | C[C@H](CO)n1cnnc1-c1cccc(NC(=O)Nc2cc(C(=O)N3CCC(F)(F)CC3)ccn2)n1 [Compound I-144] | < 50
35 | CC(C)n1cnnc1-c1cccc(NC(=O)Nc2cc(N3CCN(CCO)CC3)ccn2)n1 [Compound I-101] | < 50
36 | CC(C)n1cnnc1-c1cccc(N2CCN(c3ccc(N4CC5CCC(C4)O5)cn3)C2=O)n1 [Compound V-15] | < 50
37 | Cc1cnc(NC(=O)Nc2cccc(-c3nncn3C(C)C)n2)nc1 [Compound I-211] | < 50
38 | C[C@H](CO)n1cnnc1-c1cccc(N2CCN(c3ccc(-c4ccccc4)cn3)C2=O)n1 [Compound V-08] | < 50
39 | CC(C)n1cnnc1-c1cccc(NC(=O)Nc2cc3cc(N4CCNCC4)ccc3cn2)n1 [Compound I-065] | 50 to 500
40 | CC(C)n1cnnc1-c1cccc(NC(=O)Nc2ccc([N+](=O)[O-])cn2)n1 [Compound I-210] | < 50
41 | Cc1cnc(NC(=O)Nc2cccc(-c3nncn3C(C)C)n2)cn1 [Compound I-056] | < 50
42 | CC(C)n1cnnc1-c1cccc(NC(=O)Nc2ccc(C#N)cn2)n1 [Compound I-199] | < 50
43 | C[C@H](CO)n1cnnc1-c1cccc(NC(=O)Nc2cc(C(=O)N3CCC4(CCCCC4)CC3)ccn2)n1 [Compound I-129] | < 50
44 | CC(C)n1cnnc1-c1cccc(NC(=O)Nc2cc(C(C)(C)O)ccn2)n1 [Compound I-213] | < 50
45 | C[C@H](CO)n1cnnc1-c1cccc(NC(=O)Nc2cc(-c3ccccn3)ccn2)n1 [Compound I-085] | < 50
46 | C[C@H](CO)n1cnnc1-c1cccc(NC(=O)Nc2cc(C(=O)Nc3ccncc3)ccn2)n1 [Compound I-164] | < 50
47 | C[C@@H](CO)n1cnnc1-c1cccc(NC(=O)Nc2cc(-c3ccccc3)ccn2)n1 [Compound I-079] | < 50
48 | C[C@H](CO)n1cnnc1-c1cccc(NC(=O)Nc2cc(C(=O)N3C4CCCC3CC4)ccn2)n1 [Compound I-150] | < 50
49 | Cc1cc(F)c(NC(=O)Nc2cccc(-c3nncn3C(C)C)n2)cc1-n1cnc(C2CC2)c1 [Compound I-020] | 500 to 5000
50 | CC(C)n1cnnc1-c1cccc(NC(=O)Nc2cc(N(C)C)ccn2)n1 [Compound I-192] | < 50
51 | CC(C)n1cnnc1-c1cccc(NC(=O)Nc2ccc(C(C)(C)O)cn2)n1 [Compound I-214] | < 50
52 | CC(C)n1cnnc1-c1cccc(NC(=O)Nc2cc(C(=O)N3CCC4(CCCCC4)CC3)ccn2)n1 [Compound I-128] | < 50
53 | CC(C)n1cnnc1-c1cccc(NC(=O)Nc2cc(C(=O)N3CCC(C)(O)CC3)ccn2)n1 [Compound I-138] | < 50
54 | CC(C)n1cnnc1-c1cccc(NC(=O)Nc2ccc(F)cn2)n1 [Compound I-188] | < 50
55 | C[C@H](CO)n1cnnc1-c1cccc(NC(=O)Nc2cc(C(=O)N3CCN(C)CC3)ccn2)n1 [Compound I-142] | < 50
